Tests used:
Assay in all cases: greenhouse post-emergence herbicidal test
Format in all cases: in vivo
[1] = tested on: AMARE (Amaranthus retroflexus); details: post-emergence method, application rate 16 g/ha, scale from 0 to 100; for pest or weed control at 16 g/ha: Amaranthus retroflexus, read-out: herbicidal activity against AMARE
Text: (§1) The seeds of the test plants were sown separately for each species. For the post-emergence treatment, the test plants were first grown to a height of 3 to 15 cm, depending on the plant habit, and only then treated with the active ingredients which had been suspended or emulsified in water. For this purpose, the test plants were either sown directly and grown in the same containers, or they were first grown separately as seedlings and transplanted into the test containers a few days prior to treatment. Depending on the species, the plants were kept at 10-25° C. or 20-35° C., respectively. The test period extended over 2 to 4 weeks. During this time, the plants were tended, and their response to the individual treatments was evaluated. Evaluation was carried out using a scale from 0 to 100. 100 means no emergence of the plants, or complete destruction of at least the aerial moieties, and 0 means no damage, or normal course of growth. A good herbicidal activity is given at values of at least 70 and a very good herbicidal activity is given at values of at least 85. [table]

[2] = tested on: CHEAL (Chenopodium album); details: post-emergence method, application rate 16 g/ha, scale from 0 to 100
Text: as §1

[3] = tested on: POLCO (Polygonum convolvulus); details: post-emergence method, application rate 16 g/ha, scale from 0 to 100
Text: as §1

SETVI (Setaria viridis) = details: scale from 0 to 100; for herbicidal activity against SETVI: post-emergence method, application rate 16 g/ha; for damages SETVI: post emergence control 7 days after treatment (greenhouse)
Text: as §1

[4] = tested on: ECHCG (Echinocloa crus-galli); details: post-emergence method, application rate 16 g/ha, scale from 0 to 100
Text: as §1

[5] = tested on: ALOMY (Alopecurus myosuroides); details: post emergence control 7 days after treatment (greenhouse), scale from 0 to 100
Text: as §1

AVEFA (Avena fatua) = details: post emergence control 7 days after treatment (greenhouse), scale from 0 to 100
Text: as §1

| SMILES | pest or weed control at 16 g/ha [1] [%] | herbicidal activity against CHEAL [2] | herbicidal activity against SETVI (SETVI (Setaria viridis)) | also measured |
| --- | --- | --- | --- | --- |
| CCOC(=O)COc1ccccc1Oc1nc(N2C(=O)OC(=C(C)C)C2=O)c(F)cc1Cl [Example 26, Ethyl 2-[2-[[3-chloro-5-fluoro-6-(5-isopropylidene-2,4-dioxo-oxazolidin-3-yl)-2-pyridyl]oxy]phenoxy]acetate] | ≥ 85 | very good (a very good herbicidal activity is given at values of at least 85) | very good (a very good herbicidal activity is given at values of at least 85) | herbicidal activity against POLCO [3]: very good (a very good herbicidal activity is given at values of at least 85) |
| CCOC(=O)COc1ccccc1Oc1nc(N2C(=O)C3=C(CCCC3)C2=O)c(F)cc1Cl [Example 27, ethyl 2-[2-[[3-chloro-6-(1,3-dioxo-4,5,6,7-tetrahydroisoindol-2-yl)-5-fluoro-2-pyridyl]oxy]phenoxy]acetate] | ≥ 85 | very good (a very good herbicidal activity is given at values of at least 85) | very good (a very good herbicidal activity is given at values of at least 85) | herbicidal activity against ECHCG [4]: very good (a very good herbicidal activity is given at values of at least 85); herbicidal activity against POLCO [3]: very good (a very good herbicidal activity is given at values of at least 85) |
| CCOC(=O)COc1ncccc1Oc1nc(-n2ncc(C(F)(F)F)c(C)c2=O)c(F)cc1Cl [Example 8, Ethyl 2-[[3-[[3-chloro-5-fluoro-6-[5-methyl-6-oxo-4-(trifluoromethyl)pyridazin-1-yl]-2-pyridyl]oxy]-2-pyridyl]oxy]acetate] | ≥ 85 | – | – | – |
| CCOC(=O)COc1ncccc1Oc1nc(-n2nc(C)n(C(F)F)c2=O)ccc1Cl [Example 16] | – | very good (a very good herbicidal activity is given at values of at least 85) | – | herbicidal activity against AMARE [1]: very good (a very good herbicidal activity is given at values of at least 85); herbicidal activity against POLCO [3]: very good (a very good herbicidal activity is given at values of at least 85) |
| CCOC(=O)COc1ccccc1Oc1nc(-n2nc(C)n(C(F)F)c2=O)c(F)cc1Cl [Example 1, Ethyl 2-[2-[[3-chloro-6-[4-(difluoromethyl)-3-methyl-5-oxo-1,2,4-triazol-1-yl]-5-fluoro-2-pyridyl]oxy]phenoxy]acetate] | ≥ 85 | – | – | – |
| CCOC(=O)COc1ccccc1Oc1nc(-n2nc(C(F)(F)F)n(C)c2=O)c(F)cc1C(N)=S [Example 3, Ethyl 2-[2-[[3-carbamothioyl-5-fluoro-6-[4-methyl-5-oxo-3-(trifluoromethyl)-1,2,4-triazol-1-yl]-2-pyridyl]oxy]phenoxy]acetate] | ≥ 70 | – | – | – |
| CCOC(=O)COc1ncccc1Oc1nc(-n2nc(C)n(C(F)F)c2=O)c(F)cc1F [Example 14] | – | – | very good (a very good herbicidal activity is given at values of at least 85) | – |
| CCOC(=O)COc1ccccc1Oc1nc(-n2nc(C(F)(F)F)n(C)c2=O)c(F)cc1C#N [Example 2, Ethyl 2-[2-[[3-cyano-5-fluoro-6-[4-methyl-5-oxo-3-(trifluoromethyl)-1,2,4-triazol-1-yl]-2-pyridyl]oxy]phenoxy]acetate] | ≥ 85 | – | very good (a very good herbicidal activity is given at values of at least 85) | herbicidal activity against ECHCG [4]: very good (a very good herbicidal activity is given at values of at least 85) |
| COC(=O)COc1ccc(Oc2nc(-n3ncc(C(F)(F)F)c(C)c3=O)c(F)cc2Cl)cc1 [example 28] | – | – | – | damages ALOMY ([5]; application rate 2 g/ha): 70; damages ALOMY ([5]; application rate 4 g/ha): 75; damages AVEFA (AVEFA (Avena fatua); application rate 8 g/ha): 80; damages AVEFA (AVEFA (Avena fatua); application rate 16 g/ha): 98; damages SETVI (SETVI (Setaria viridis); application rate 2 g/ha): 90; damages SETVI (SETVI (Setaria viridis); application rate 4 g/ha): 95 |
| CCOC(=O)COc1ccccc1Oc1nc(-n2nc(C)n(C(F)F)c2=O)c(F)cc1F [Example 9] | – | good (A good herbicidal activity is given at values of at least 70) | good (A good herbicidal activity is given at values of at least 70) | herbicidal activity against ECHCG [4]: good (A good herbicidal activity is given at values of at least 70) |
| CCOC(=O)COc1ccccc1Oc1nc(-n2nc(C(C)(C)C)oc2=O)c(Cl)cc1Cl [Example 5, Ethyl 2-[2-[[6-(5-tert-butyl-2-oxo-1,3,4-oxadiazol-3-yl)-3,5-dichloro-2-pyridyl]oxy]phenoxy]acetate] | ≥ 85 | very good (a very good herbicidal activity is given at values of at least 85) | – | – |
| COC(=O)COc1ccc(Oc2cc(-n3ncc(C(F)(F)F)c(C)c3=O)c(F)cc2Cl)cc1 [Example A2-11, reference compound] | – | – | – | damages ALOMY ([5]; application rate 2 g/ha): 60; damages ALOMY ([5]; application rate 4 g/ha): 65; damages AVEFA (AVEFA (Avena fatua); application rate 8 g/ha): 70; damages AVEFA (AVEFA (Avena fatua); application rate 16 g/ha): 80; damages SETVI (SETVI (Setaria viridis); application rate 2 g/ha): 80; damages SETVI (SETVI (Setaria viridis); application rate 4 g/ha): 85 |
| CCOC(=O)COc1ccccc1Oc1nc(-n2nc(C(F)(F)F)n(C)c2=S)c(F)cc1C#N [Example 18] | – | – | good (A good herbicidal activity is given at values of at least 70) | herbicidal activity against AMARE [1]: very good (a very good herbicidal activity is given at values of at least 85) |
| CCOC(=O)COc1ccccc1Oc1nc(-n2nc3n(c2=O)CCCC3)c(Cl)cc1Cl [Example 4, Ethyl 2-[2-[[3,5-dichloro-6-(3-oxo-5,6,7,8-tetrahydro-[1,2,4]triazolo[4,3-a]pyridin-2-yl)-2-pyridyl]oxy]phenoxy]acetate] | ≥ 70 | – | – | – |
| CCOC(=O)COc1ncccc1Oc1nc(-n2c(=O)n(C)c(=O)n(C)c2=O)c(F)cc1Cl [Example 7, Ethyl 2-[[3-[[3-chloro-6-(3,5-dimethyl-2,4,6-trioxo-1,3,5-triazinan-1-yl)-5-fluoro-2-pyridyl]oxy]-2-pyridyl]oxy]acetate] | ≥ 70 | – | – | – |
| CCOC(=O)COc1ccccc1Oc1nc(-c2nn(C)c(OC(F)F)c2Cl)c(F)cc1Cl [Example 6, Ethyl 2-[2-[[3-chloro-6-[4-chloro-5-(difluoromethoxy)-1-methyl-pyrazol-3-yl]-5-fluoro-2-pyridyl]oxy]phenoxy]acetate] | ≥ 85 | – | – | – |
